# From patent US10471111B2, “Lactobacillus and composition for preventing, improving, or treating degenerative brain diseases or cognitive function disorders” (University-Industry Cooperation Group of Kyung Hee …, priority 2015, dated 2019)
# Tests used:
# Type in all cases: in vivo, ICR male mice
# [1] = test system: mice induced to have memory impairment by Proteus mirabilis K21; assay: Y-maze test, memory impairment by Proteus mirabilis K21; conditions: Proteus mirabilis K21 1×10^9 CFU for five days, then lactic acid bacteria 1×10^9 CFU or donepezil 5 mg/kg daily for five days
# Procedure: Proteus mirabilis K21 separated from the animal with damaged memory was administered to the mice to induce memory impairment (similar symptoms to […]), and Y-maze test was conducted to measure the improvement effect of lactic acid bacteria for cognitive ability.
# In more detail, Proteus mirabilis K21 was administered to a mouse (5-week-old ICR male mice from Raonbio) that was fed for a week in the animal laboratory at the dosage of 1×10^9 CFU on a daily basis for five days to induce memory impairment. In the meantime, the normal group was administered with physiological saline instead of Proteus mirabilis K21. […]
# An hour after the final administration of drug, the mouse was carefully placed in one of the three arms, A, B, and C, in the Y-maze and allowed to freely move for eight minutes, and then the arm in which the mouse moved was recorded. In the experiment, the arm was recorded as an arm in which the test animal moved only when the entire body including the tail was inside the arm, or when the mouse moved back in. […] The experimental result was calculated by the formula below (Sarter, M. et al., Psychopharmacology., 94, pp 491-495, 1998), as shown in Table 12 below. […]
# [2] = test system: mice induced to have memory impairment by scopolamine; assay: Passive Avoidance test, memory impairment by scopolamine; conditions: scopolamine 1 mg/kg; lactic acid bacteria 1×10^9 CFU or donepezil 5 mg/kg daily for three days; measured up to 300 seconds
# Source text: In the Passive Avoidance test apparatus, which is divided into the first and second space, there is a guillotine-like door that connects the two spaces. By using lightings, the first space was kept bright while the second space was kept dark. On the floor of the second space that was kept dark was placed an electric grid that flowed 0.5 mA of electric shock for three seconds in the case of the animal moving to the dark space.
# (§1) The selected 13 types of lactic acid bacteria were each suspended in physiological saline at the concentration of 1×10^10 CFU/ ? , and then the suspension was administered to mice of the test animal (5-week-old ICR male mice from Raonbio), at the dosage of 0.1 ? (equivalent to 1×10^9 CFU of lactic acid bacteria) on a daily basis for three days. […]
# On the third day after administering the drug, an hour after administering lactic acid bacteria or positive control drug, 1 mg/kg (body weight) of scopolamine (cholinergic blocking drug inducing cognitive ability disorder or memory damage), dissolved in distilled water, was administered in the abdomen while the normal group was administered with physiological saline in the abdomen. […] With 10 seconds of observation, the guillotine-like door is opened, the time that the mice in each experimental group took to have all of their four feet inside the second space was measured up to 300 seconds, whose result is shown in Table 8. […]
# [3] = test system: mice induced to have memory impairment by scopolamine; assay: Y-maze test, memory impairment by scopolamine
# Procedure: Apparatus used in the Y-maze test consists of three arms with each being 42 cm in length, 3 cm in width and 12 cm in height. The three arms, made from black polyvinyl resin, were placed at an angle of 120 degrees.
# as §1
# An hour after the final administration of lactic acid bacteria or positive control drug, 1 mg/kg (body weight) of scopolamine (cholinergic blocking drug inducing cognitive ability disorder or memory impairment), dissolved in distilled water, was administered in the abdomen while the normal group was administered with physiological saline in the abdomen. half an hour after the administration of scopolamine, the mouse was carefully placed in one of the three arms, A, B, and C, in the Y-maze and allowed to freely move for eight minutes, and then the arm in which the mouse moved was recorded. In the experiment, the arm was recorded as a case in which the test animal moved only when the entire body including the tail was inside the arm, or when the mouse moved back in. […]
compound,measurement,setting,value
COc1cc2c(cc1OC)C(=O)C(CC1CCN(Cc3ccccc3)CC1)C2 (stereo not shown) [donepezil],Alternation behavior,[1],58.6%
same,Latency time,[2],66.4 s
same,Alternation behavior,"[3]; Y-maze test, Table 11, scopolamine, red bean suspension or ferment 0.2 g per mouse, CJLJ103 2 × 10^8 CFU per mouse daily",63.2%
same,Alternation behavior,"[3]; scopolamine 1 mg/kg, lactic acid bacteria 1×10^9 CFU or donepezil 5 mg/kg daily for three days",65.8%
